{"source": "patent US12318373B2", "about": "“Methods of treating gastrointestinal stromal tumors” (Deciphera Pharmaceuticals, LLC, priority 2019, dated 2025)", "key": {"[1]": {"test": "Example 8: coadministration with proton-pump inhibitor (pantoprazole), exposure", "format": "in vivo", "procedure": "The effect of a proton-pump inhibitor on the exposure of ripretinib was evaluated."}, "[2]": {"test_system": "GIST", "test": "Example 4: phase 1 study, efficacy by line of therapy at 150 mg QD", "format": "in vivo, human", "procedure": "Efficacy and safety results from the escalation and expansion phases of a phase 1 study for patients with GIST treated at ripretinib 150 mg QD as the starting dose in 28-day cycles are presented. Local, investigator-assessed Response Evaluation Criteria in Solid Tumors (RECIST 1.1) response assessments were performed every 2 cycles, and patients in the expansion cohorts who progressed per RECIST 1.1 were allowed to dose escalate to 150 mg BID.\n142 patients with GIST in the escalation and expansion phases were treated at 150 mg QD dose. Number of patients by line of therapy were as follows: 31 2nd line, 28 3rd line, and 83≥4th line patients. 135 patients (95.1%) had KIT-mutant GIST, and 7 patients (4.9%) had PDGFRA-mutant GIST.\nFor example, the confirmed-only complete response (CR), partial response (PR), stable disease, and progressive disease are presented in Table 4. The objective response rate data in Table 4 relates to the proportion of patients with CR+PR. The median PFS data in Table 4 refers to progression-free survival per investigator assessment, by line of therapy."}, "[3]": {"test_system": "GIST", "test": "Example 3: clinical study in second-line through fourth-line plus GIST, efficacy at ≥100 mg daily", "format": "in vivo, human", "conditions": "for Objective Response Rate by Best Response Includes Unconfirmed: RECIST 1.1, investigator-assessed", "procedure": "Results. Data from 178 GIST patients receiving ripretinib at doses of ≥100 mg daily are noted in Table 2. The table includes investigator-assessed objective response rate (ORR) by best response, disease control rate (DCR) and median progression free survival (mPFS), all of which were determined by Response Evaluation Criteria in Solid Tumors (RECIST) version 1.1."}, "[4]": {"test_system": "patients with advanced GIST", "test": "Example 2/6: safety, treatment-emergent adverse events", "format": "in vivo, human", "procedure": "This study was a randomized (2:1), double-blind, placebo-controlled, international, multicenter study to evaluate the safety, tolerability, and efficacy of ripretinib compared to placebo in 129 patients with advanced GIST whose previous therapies have included at least imatinib, sunitinib, and regorafenib. Patients were randomized 2:1 to either 150 mg of ripretinib or placebo once daily. The primary efficacy endpoint is progression-free survival (PFS) as determined by independent radiologic review using modified Response Evaluation Criteria in Solid Tumors (RECIST). Secondary endpoints as determined by independent radiologic review using modified RECIST include Objective Response Rate (ORR), Time to Tumor Progression (TTP) and Overall Survival (OS).\nGrade 3 or 4 treatment-emergent adverse events (TEAEs) occurred in 42 (49%) patients on the ripretinib arm compared to 19 (44%) on the placebo arm. Grade 3 or 4 TEAEs>5% of patients in the ripretinib arm were anemia (9%; n=8), abdominal pain (7%; n=6) and hypertension (7%; n=6). Grade 3 or 4 TEAEs>5% of patients in the placebo arm were anemia (14%; n=6). Table 1 lists TEAEs>15% in the ripretinib arm compared to placebo.\nThe safety of ripretinib and the impact of alopecia and palmar-plantar erythrodysesthesia (PPES) on patient-reported outcomes (PROs) of patients treated in the study described in Example 2 herein are described. […] When stratified by alopecia and PPES, patient reported assessments of function, overall health, and overall quality of life were maintained over time."}}, "data": [{"smiles": "CCn1c(=O)c(-c2cc(NC(=O)Nc3ccccc3)c(F)cc2Br)cc2cnc(NC)cc21", "note": "[ripretinib]", "values": [{"measurement": "Effect on ripretinib exposure", "setting": "[1]; 40 mg QD pantoprazole with 150 mg QD ripretinib", "result": "did not affect"}, {"measurement": "Difference in plasma exposure", "setting": "[1]; ripretinib coadministered with pantoprazole", "result": "No clinically significant differences"}, {"measurement": "Duration of response, Median", "setting": "[2]; 150 mg QD, 2nd Line", "result": 80, "unit": "weeks"}, {"measurement": "Best response (confirmed only): PR, %", "setting": "[2]; 150 mg QD, 2nd Line (n = 31)", "result": "(19.4) %"}, {"measurement": "Best response (confirmed only): Progressive disease, %", "setting": "[2]; 150 mg QD, 2nd Line (n = 31)", "result": "(12.9) %"}, {"measurement": "Best response (confirmed only): Stable disease, %", "setting": "[2]; 150 mg QD, 2nd Line (n = 31)", "result": "(67.7) %"}, {"measurement": "PFS, Median", "setting": "[2]; 150 mg QD, 2nd Line (n = 31), investigator assessment", "result": 46.4, "unit": "weeks"}, {"measurement": "Duration of response: Number of events", "setting": "[2]; 150 mg QD, 2nd Line, n = 6 responders", "result": 3}, {"measurement": "Best response (confirmed only): PR, %", "setting": "[2]; 150 mg QD, 3rd Line (n = 28)", "result": "(14.3) %"}, {"measurement": "Best response (confirmed only): Progressive disease, %", "setting": "[2]; 150 mg QD, 3rd Line (n = 28)", "result": "(21.4) %"}, {"measurement": "Best response (confirmed only): Stable disease, %", "setting": "[2]; 150 mg QD, 3rd Line (n = 28)", "result": "(64.3) %"}, {"measurement": "PFS, Median", "setting": "[2]; 150 mg QD, 3rd Line (n = 28), investigator assessment", "result": 36.3, "unit": "weeks"}, {"measurement": "Duration of response: Number of events", "setting": "[2]; 150 mg QD, 3rd Line, n = 4 responders", "result": 1}, {"measurement": "Duration of response, Median", "setting": "[2]; 150 mg QD, ≥4th Line", "result": 76.1, "unit": "weeks"}, {"measurement": "Best response (confirmed only): No response assessment, %", "setting": "[2]; 150 mg QD, ≥4th Line (n = 83)", "result": "(6.0) %"}, {"measurement": "Best response (confirmed only): Not evaluable, %", "setting": "[2]; 150 mg QD, ≥4th Line (n = 83)", "result": "(1.2) %"}, {"measurement": "Best response (confirmed only): PR, %", "setting": "[2]; 150 mg QD, ≥4th Line (n = 83)", "result": "(7.2) %"}, {"measurement": "Best response (confirmed only): Progressive disease, %", "setting": "[2]; 150 mg QD, ≥4th Line (n = 83)", "result": "(26.5) %"}, {"measurement": "Best response (confirmed only): Stable disease, %", "setting": "[2]; 150 mg QD, ≥4th Line (n = 83)", "result": "(59.0) %"}, {"measurement": "PFS, Median", "setting": "[2]; 150 mg QD, ≥4th Line (n = 83), investigator assessment", "result": 23.9, "unit": "weeks"}, {"measurement": "Duration of response: Number of events", "setting": "[2]; 150 mg QD, ≥4th Line, n = 6 responders", "result": 3}, {"measurement": "PFS of second and third-line patients with Exons 9, 11, 13, or 17 KIT mutations", "setting": "[2]; FIG. 27", "result": "comparable PFS"}, {"measurement": "Clinical benefit after dose escalation to 150 mg BID (PFS1 vs PFS2)", "setting": "[2]; regardless of line of therapy, investigator assessment, FIGS. 25A, 25B", "result": "additional clinical benefit"}, {"measurement": "Disease Control Rate at 3 Months", "setting": "[3]; Fourth-Line (n = 60)", "result": 73, "unit": "%"}, {"measurement": "Median Progression Free Survival (mPFS)", "setting": "[3]; Fourth-Line (n = 60)", "result": 30, "unit": "weeks"}, {"measurement": "Objective Response Rate by Best Response (Confirmed Only)", "setting": "[3]; Fourth-Line (n = 60)", "result": "(8%)"}, {"measurement": "Objective Response Rate by Best Response Includes Unconfirmed", "setting": "[3]; Fourth-Line (n = 60)", "result": 15, "unit": "%"}, {"measurement": "Disease Control Rate at 3 Months", "setting": "[3]; Second-Line (n = 37)", "result": 81, "unit": "%"}, {"measurement": "Median Progression Free Survival (mPFS)", "setting": "[3]; Second-Line (n = 37)", "result": 42, "unit": "weeks"}, {"measurement": "Objective Response Rate by Best Response (Confirmed Only)", "setting": "[3]; Second-Line (n = 37)", "result": "(22%)"}, {"measurement": "Objective Response Rate by Best Response Includes Unconfirmed", "setting": "[3]; Second-Line (n = 37)", "result": 30, "unit": "%"}, {"measurement": "Disease Control Rate at 3 Months", "setting": "[3]; Third-Line (n = 31)", "result": 80, "unit": "%"}, {"measurement": "Median Progression Free Survival (mPFS)", "setting": "[3]; Third-Line (n = 31)", "result": 40, "unit": "weeks"}, {"measurement": "Objective Response Rate by Best Response (Confirmed Only)", "setting": "[3]; Third-Line (n = 31)", "result": "(13%)"}, {"measurement": "Objective Response Rate by Best Response Includes Unconfirmed", "setting": "[3]; Third-Line (n = 31)", "result": 23, "unit": "%"}, {"measurement": "Disease Control Rate at 3 Months", "setting": "[3]; ≥Fourth-Line (n = 110)", "result": 66, "unit": "%"}, {"measurement": "Median Progression Free Survival (mPFS)", "setting": "[3]; ≥Fourth-Line (n = 110)", "result": 24, "unit": "weeks"}, {"measurement": "Objective Response Rate by Best Response (Confirmed Only)", "setting": "[3]; ≥Fourth-Line (n = 110)", "result": "(7%)"}, {"measurement": "Objective Response Rate by Best Response Includes Unconfirmed", "setting": "[3]; ≥Fourth-Line (n = 110)", "result": 11, "unit": "%"}, {"measurement": "Alopecia in females (females vs males)", "setting": "[4]; female, human, in vivo", "result": 56.8, "unit": "%"}, {"measurement": "Grade 3 or 4 abdominal pain: patients, %", "setting": "[4]; human, in vivo", "result": 7, "unit": "%"}, {"measurement": "Grade 3 or 4 abdominal pain: patients, number", "setting": "[4]; human, in vivo", "result": 6}, {"measurement": "Grade 3 or 4 anemia: patients, number", "setting": "[4]; human, in vivo", "result": 8}, {"measurement": "Grade 3 or 4 hypertension: patients, %", "setting": "[4]; human, in vivo", "result": 7, "unit": "%"}, {"measurement": "Grade 3 or 4 hypertension: patients, number", "setting": "[4]; human, in vivo", "result": 6}, {"measurement": "Patients with a TEAE leading to dose interruption", "setting": "[4]; human, in vivo", "result": 23.5, "unit": "%"}, {"measurement": "Patients with a TEAE leading to dose reduction", "setting": "[4]; human, in vivo", "result": 7.1, "unit": "%"}, {"measurement": "Grade 3/4 alopecia", "setting": "[4]; in vivo", "result": "no patients"}, {"measurement": "Grade 3 PPES", "setting": "[4]; in vivo", "result": "no patients"}, {"measurement": "Overall safety and tolerability profile", "setting": "[4]; in vivo", "result": "favorable overall safety and tolerability profile"}, {"measurement": "Serious adverse events of alopecia or PPES", "setting": "[4]; in vivo", "result": "no serious adverse events"}, {"measurement": "TEAEs during the crossover period", "setting": "[4]; in vivo", "result": "no safety concerns"}, {"measurement": "Alopecia in males (females vs males)", "setting": "[4]; male, human, in vivo", "result": 43.2, "unit": "%"}, {"measurement": "Patients with a TEAE leading to death", "setting": "[4]; ripretinib arm", "result": 5.9, "unit": "%"}]}]}
